In ChEMBL document CHEMBL3621174, “Synthesis and evaluation of new tyrosyl-tRNA synthetase inhibitors as antibacterial agents based on a N2-(arylacetyl)glycinanilide scaffold” (Eur J Med Chem, 2015):
≈ marks a conversion by molar mass, not a printed value.

Experiments:
[1] = Inhibition of Staphylococcus aureus Tyrosyl-tRNA synthetase using L-[ring-3,5-3H] tyrosine as substrate after 10 min by liquid scintillation assay
[2] = test system: Staphylococcus aureus; test: Antibacterial activity against Staphylococcus aureus ATCC 25923 after 24 hr by MTT assay; type: functional; details: ATCC 25923, 24 h
[3] = test system: Staphylococcus aureus; test: Antibacterial activity against Staphylococcus aureus ATCC 6538 after 24 hr by MTT assay; type: functional; details: ATCC 6538, 24 h
[4] = test system: Escherichia coli; test: Antibacterial activity against Escherichia coli ATCC 35218 after 24 hr by MTT assay; type: functional; details: ATCC 35218, 24 h
[5] = test system: Pseudomonas aeruginosa; test: Antibacterial activity against Pseudomonas aeruginosa ATCC 9027 after 24 hr by MTT assay; type: functional; details: ATCC 9027, 24 h
[6] = test system: Escherichia coli; test: Antibacterial activity against Escherichia coli ATCC 8739 after 24 hr by MTT assay; type: functional; details: ATCC 8739, 24 h
[7] = test system: Pseudomonas aeruginosa; test: Potency index, ratio of penicillin G MIC to compound MIC for Pseudomonas aeruginosa ATCC 9027; type: functional
[8] = test system: Staphylococcus aureus; test: Potency index, ratio of penicillin G MIC to compound MIC for Staphylococcus aureus ATCC 6538; type: functional

SMILES | IC50 [1] [µM] | MIC [2] [µM] | MIC [3] [µM] | MIC [4] [µM] | MIC [5] [µM] | MIC [6] [µM] | Ratio [7] | MIC50 [3] [µM] | Ratio [8] | MIC50 [5] [µM]
COc1ccc(NC(=O)CNC(=O)Cc2ccccc2)cc1 | 82 | > 160 | > 160 | > 160 | > 160 | > 160 | – | – | – | –
O=C(Cc1ccccc1)NCC(=O)Nc1cccc(Cl)c1 | 144 | > 160 | > 160 | > 160 | > 160 | > 160 | – | – | – | –
COc1ccc(NC(=O)CNC(=O)Cc2ccccc2)cc1OC | 162 | > 160 | > 160 | > 160 | > 160 | > 160 | – | – | – | –
COc1ccc(NC(=O)CNC(=O)Cc2ccc(O)cc2)cc1 | 319 | > 160 | > 160 | > 160 | > 160 | > 160 | – | – | – | –
O=C(Cc1ccc(O)cc1)NCC(=O)Nc1ccc([N+](=O)[O-])cc1 | 10.2 | 34.1 (≈ 11.2 µg/mL) | 28.6 (≈ 9.42 µg/mL) | 144 (≈ 47.4 µg/mL) | 134 (≈ 44.1 µg/mL) | 86.9 (≈ 28.6 µg/mL) | – | – | – | –
COc1ccc(NC(=O)CNC(=O)Cc2cccc(O)c2)cc1 | 279 | > 160 | > 160 | > 160 | > 160 | > 160 | – | – | – | –
O=C(Cc1cccc(O)c1)NCC(=O)Nc1ccc([N+](=O)[O-])cc1 | 6.41 | 18.4 (≈ 6.06 µg/mL) | 15.2 (≈ 5.01 µg/mL) | 89.4 (≈ 29.4 µg/mL) | 72 (≈ 23.7 µg/mL) | 47.1 (≈ 15.5 µg/mL) | – | – | – | –
COc1ccc(NC(=O)CNC(=O)Cc2ccccc2O)cc1 | 478 | > 160 | > 160 | > 160 | > 160 | > 160 | – | – | – | –
Cc1ccc(NC(=O)CNC(=O)Cc2cccc(Cl)c2)cc1 | 21.4 | 91.1 (≈ 28.9 µg/mL) | 64.9 (≈ 20.6 µg/mL) | > 160 | > 160 | 155 (≈ 49.2 µg/mL) | – | – | – | –
Cc1ccc(CC(=O)NCC(=O)Nc2ccc([N+](=O)[O-])cc2)cc1 | 44.6 | 132 (≈ 43.2 µg/mL) | 80.7 (≈ 26.4 µg/mL) | > 160 | > 160 | > 160 | – | – | – | –
O=C(Cc1ccccc1)NCC(=O)Nc1ccc(Br)cc1 | 50.6 | > 160 | 113 (≈ 39.3 µg/mL) | > 160 | > 160 | > 160 | – | – | – | –
O=C(Cc1ccccc1)NCC(=O)Nc1cccc([N+](=O)[O-])c1 | 47.8 | 156 (≈ 48.9 µg/mL) | 103 (≈ 32.3 µg/mL) | > 160 | > 160 | > 160 | – | – | – | –
O=C(Cc1ccccc1)NCC(=O)Nc1ccc([N+](=O)[O-])cc1 | 0.87 | 3.67 (≈ 1.15 µg/mL) | 2.81 (≈ 0.88 µg/mL) | 15.8 (≈ 4.95 µg/mL) | 18.2 (≈ 5.7 µg/mL) | 11.2 (≈ 3.51 µg/mL) | – | – | – | –
O=C(Cc1ccccc1)NCC(=O)Nc1cc(F)cc(F)c1 | 13.1 | 47.7 (≈ 14.5 µg/mL) | 40.5 (≈ 12.3 µg/mL) | > 160 | 148 (≈ 45.1 µg/mL) | 120 (≈ 36.5 µg/mL) | – | – | – | –
O=C(Cc1ccccc1)NCC(=O)Nc1ccc(Cl)cc1 | 16.6 | 69.2 (≈ 21 µg/mL) | 49.7 (≈ 15 µg/mL) | 159 (≈ 48.1 µg/mL) | > 160 | 123 (≈ 37.3 µg/mL) | – | – | – | –
O=C(Cc1ccccc1)NCC(=O)Nc1cc(Cl)cc(Cl)c1 | 133 | > 160 | > 160 | > 160 | > 160 | > 160 | – | – | – | –
O=C(Cc1ccccc1)NCC(=O)Nc1ccccc1 | 19.3 | 73.5 (≈ 19.7 µg/mL) | 52.7 (≈ 14.1 µg/mL) | > 160 | > 160 | 134 (≈ 35.9 µg/mL) | – | – | – | –
O=C(Cc1ccccc1)NCC(=O)Nc1ccccc1Cl | 205 | > 160 | > 160 | > 160 | > 160 | > 160 | – | – | – | –

SMILES | IC50 [1] [µM] | MIC [2] [µM] | MIC [3] [µM] | MIC [4] [µM] | MIC [5] [µM] | MIC [6] [µM] | Ratio [7] | MIC50 [3] [µM] | Ratio [8] | MIC50 [5] [µM]
O=C(Cc1ccc(Cl)cc1)NCC(=O)Nc1cc(Cl)cc(Cl)c1 | 254 | > 160 | > 160 | > 160 | > 160 | > 160 | – | – | – | –
COc1ccc(NC(=O)CNC(=O)Cc2ccc(Cl)cc2)cc1 | 70.1 | > 160 | > 160 | > 160 | > 160 | > 160 | – | – | – | –
COc1ccc(NC(=O)CNC(=O)Cc2cccc(Cl)c2)cc1 | 66.5 | 148 (≈ 49.3 µg/mL) | 148 (≈ 49.3 µg/mL) | > 160 | > 160 | > 160 | – | – | – | –
O=C(Cc1cccc(Cl)c1)NCC(=O)Nc1ccc(Br)cc1 | 8.36 | 24.9 (≈ 9.5 µg/mL) | 20.9 (≈ 7.98 µg/mL) | 83.4 (≈ 31.8 µg/mL) | 96.1 (≈ 36.7 µg/mL) | 62.4 (≈ 23.8 µg/mL) | – | – | – | –
O=C(Cc1cccc(Cl)c1)NCC(=O)Nc1ccc([N+](=O)[O-])cc1 | 0.7 | 2.36 (≈ 0.821 µg/mL) | 1.84 (≈ 0.64 µg/mL) | 9.5 (≈ 3.3 µg/mL) | 10.1 (≈ 3.51 µg/mL) | 6.8 (≈ 2.36 µg/mL) | 3.9 | 0.52 (≈ 0.181 µg/mL) | 3 | 3.37 (≈ 1.17 µg/mL)
COc1ccc(NC(=O)CNC(=O)Cc2ccccc2Cl)cc1 | 189 | > 160 | > 160 | > 160 | > 160 | > 160 | – | – | – | –
O=C(Cc1ccccc1Cl)NCC(=O)Nc1ccc(Br)cc1 | 77.8 | 103 (≈ 39.5 µg/mL) | 69.7 (≈ 26.6 µg/mL) | > 160 | > 160 | > 160 | – | – | – | –
O=C(Cc1ccccc1Cl)NCC(=O)Nc1ccc([N+](=O)[O-])cc1 | 2.52 | 8.41 (≈ 2.92 µg/mL) | 6.51 (≈ 2.26 µg/mL) | 19.7 (≈ 6.85 µg/mL) | 34 (≈ 11.8 µg/mL) | 13.5 (≈ 4.69 µg/mL) | – | – | – | –
O=C(Cc1cccc(Br)c1)NCC(=O)Nc1ccc(Br)cc1 | 58.4 | > 160 | 97.2 (≈ 41.4 µg/mL) | > 160 | > 160 | > 160 | – | – | – | –
COc1ccc(NC(=O)CNC(=O)Cc2ccc(F)cc2)cc1 | 112 | > 160 | > 160 | > 160 | > 160 | > 160 | – | – | – | –
O=C(Cc1ccc(F)cc1)NCC(=O)Nc1ccc([N+](=O)[O-])cc1 | 5.25 | 17 (≈ 5.63 µg/mL) | 14.1 (≈ 4.67 µg/mL) | 75.8 (≈ 25.1 µg/mL) | 65.6 (≈ 21.7 µg/mL) | 42.3 (≈ 14 µg/mL) | – | – | – | –
COc1ccc(NC(=O)CNC(=O)Cc2cccc(F)c2)cc1 | 92.7 | > 160 | > 160 | > 160 | > 160 | > 160 | – | – | – | –
O=C(Cc1cccc(F)c1)NCC(=O)Nc1ccc([N+](=O)[O-])cc1 | 1.14 | 4.11 (≈ 1.36 µg/mL) | 3.14 (≈ 1.04 µg/mL) | 19.6 (≈ 6.49 µg/mL) | 18.2 (≈ 6.03 µg/mL) | 12.3 (≈ 4.08 µg/mL) | – | – | – | –
COc1ccc(NC(=O)CNC(=O)Cc2ccc(OC)c(OC)c2)cc1 | 556 | > 160 | > 160 | > 160 | > 160 | > 160 | – | – | – | –
COc1ccc(CC(=O)NCC(=O)Nc2ccc([N+](=O)[O-])cc2)cc1OC | 88.5 | > 160 | > 160 | > 160 | > 160 | > 160 | – | – | – | –
NC[C@H]1O[C@H](O[C@H]2[C@H](O)[C@@H](O[C@H]3O[C@H](CO)[C@@H](O)[C@H](N)[C@H]3O)[C@H](N)C[C@@H]2N)[C@H](O)[C@@H](O)[C@@H]1O [KANAMYCIN] | – | – | – | 4.35 (≈ 2.11 µg/mL) | 7.16 (≈ 3.47 µg/mL) | 1.26 (≈ 0.61 µg/mL) | – | – | – | –
CC1(C)S[C@@H]2[C@H](NC(=O)Cc3ccccc3)C(=O)N2[C@H]1C(=O)O [PENICILLIN G] | – | 9.28 (≈ 3.1 µg/mL) | 7.13 (≈ 2.38 µg/mL) | – | – | – | – | – | – | –
